Source: patent US9445601B2, “Fungicide active substance combinations” (Bayer Intellectual Property GmbH, priority 1997, dated 2016)
Like-named read-outs stand apart in the source and are kept apart here.

What was measured:
Type in all cases: in vivo
Sphaerotheca fuliginea = test: Sphaerotheca test (cucumber)/protective; details: for pest or weed control at 2.5 g/ha: application rate 2.5 g/ha
Method: Sphaerotheca Test (Cucumber)/Protective
(§1) • Solvent: 47 parts by weight of acetone • Emulsifier: 3 parts by weight of alkylaryl polyglycol ether
After the spray coating has dried on, the plants are inoculated with an aqueous spore suspension of Sphaerotheca fuliginea. The plants are then placed in a greenhouse at about 23° C. and a relative atmospheric humidity of about 70%.
Evaluation is carried out 10 days after the inoculation.

Fusarium nivale = Fusarium nivale test (triticale)/seed treatment; details: dry seed dressing, single active compound, about 3 weeks after sowing
Method: Fusarium nivale Test (Triticale)/Seed Treatment
(§2) The active compounds are applied as a dry seed dressing. This is prepared by extending the respective active compound or the active compound combination with ground minerals to give a finely pulverulent mixture which ensures uniform distribution on the seed surface.
(§3) To dress the seed, the infected seed together with the seed dressing is shaken for 3 minutes in a sealed glass flask.
2×100 corns of wheat are sown at a depth of 1 cm in standard soil and cultivated in a greenhouse at a temperature of about 10° C. and a relative atmospheric humidity of about 95% in seed trays which receive a light regimen of 15 hours per day.
(§4) About 3 weeks after sowing, the plants are evaluated for symptoms. 0% means an efficacy which corresponds to that of the control, whereas an efficacy of 100% means that no infection is observed.

[1] = system: Erysiphe graminis f. sp. tritici; test: Erysiphe test (wheat)/curative; details: curative, single active compound, 7 days after inoculation
Method: Erysiphe Test (Wheat)/Curative
(§5) • Solvent: 10 parts by weight of N-methyl-pyrrolidone • Emulsifier: 0.6 parts by weight of alkylaryl polyglycol ether
(§6) To produce a suitable preparation of active compound, 1 part by weight of active compound or active compound combination is mixed with the stated amounts of solvent and emulsifier, and the concentrate is diluted with water to the desired concentration, or a commercial formulation of active compound or active compound combination is diluted with water to the desired concentration.
To test for curative activity, young plants are dusted with spores of Erysiphe graminis f. sp. tritici. 48 hours after the inoculation, the plants are sprayed with the active compound preparation at the stated application rate.
(§7) The plants are then placed in a greenhouse at a temperature of about 20° C. and a relative atmospheric humidity of about 80% to promote the development of mildew pustules.
(§8) Evaluation is carried out 7 days after the inoculation. 0% means an efficacy which corresponds to that of the control, whereas an efficacy of 100% means that no infection is observed.

Puccinia recondita = test: Puccinia test (wheat)/protective; details: protective, single active compound, application rate 25 g/ha, 10 days after inoculation
Method: Puccinia Test (Wheat)/Protective
as §5, §6
To test for protective activity, young plants are inoculated with a spore suspension of Puccinia recondita in a 0.1% strength aqueous agar solution. After the spray coating had dried on, the plants are sprayed with the active compound preparation at the stated application rate.
The plants remain in an incubation cabin at 20° C. and 100% relative atmospheric humidity for 24 hours.
The plants are then placed in a greenhouse at a temperature of about 20° C. and a relative atmospheric humidity of about 80% to promote the development of rust pustules.
(§9) Evaluation is carried out 10 days after the inoculation. 0% means an efficacy which corresponds to that of the control, whereas an efficacy of 100% means that no infection is observed.

Leptosphaeria nodorum = Leptosphaeria nodorum test (wheat)/protective; details: protective, single active compound, application rate 25 g/ha, 10 days after inoculation
Method: Leptosphaeria nodorum Test (Wheat)/Protective
as §5, §6
(§10) To test for protective activity, young plants are sprayed with the active compound preparation at the stated application rate.
After the spray coating has dried on, the plants are sprayed with a spore suspension of Leptosphaeria nodorum. The plants remain in an incubation cabin at 20° C. and 100% relative atmospheric humidity for 48 hours.
The plants are then placed in a greenhouse at a temperature of about 15° C. and a relative atmospheric humidity of about 80%.
as §9

[2] = system: Erysiphe graminis f. sp. hordei; test: Erysiphe test (barley)/curative; details: curative, single active compound, application rate 25 g/ha, evaluation 7 days after inoculation
Method: Erysiphe Test (Barley)/Curative
as §5, §6
To test for curative activity, young plants are dusted with spores of Erysiphe graminis f. sp. hordei. 48 hours after the inoculation, the plants are sprayed with the active compound preparation at the stated application rate.
(§11) The plants are placed in a greenhouse at a temperature of about 20° C. and a relative atmospheric humidity of about 80% to promote the development of mildew pustules.
as §8

[3] = system: Erysiphe graminis f. sp. tritici; test: Erysiphe test (wheat)/protective; details: protective, single active compound, application rate 6.25 g/ha, 7 days after inoculation
Method: Erysiphe Test (Wheat)/Protective
as §5, §6, §10
After the spray coating has dried on, the plants are dusted with spores of Erysiphe graminis f. sp. tritici.
as §7, §8

Rhizoctonia solani = Rhizoctonia solani test (cotton)/seed treatment; details: dry seed dressing, single active compound, application rate 25 g/ha, evaluation after 8 days
Method: Rhizoctonia solani Test (Cotton)/Seed Treatment
as §2, §3
2×50 corns of seed are sown at a depth of 2 cm in standard soil infected with Rhizoctonia solani, and the seeds are cultivated in a greenhouse at a temperature of about 22° C. in seed trays which receive a light regimen of 15 hours per day.
Evaluation is carried out after 8 days. 0% means an efficacy which corresponds to that of the control, whereas an efficacy of 100% means that no infection is observed.

Fusarium culmorum = Fusarium culmorum test (wheat)/seed treatment; details: dry seed dressing, single active compound, application rate 75 g/ha as printed, about 3 weeks after sowing
Method: Fusarium culmorum Test (Wheat)/Seed Treatment
as §2, §3
2×100 corns of wheat are sown at a depth of 1 cm in standard soil and cultivated in a greenhouse at a temperature of about 18° C. and a relative atmospheric humidity of about 95% in seed trays which receive a light regimen of 15 hours per day.
as §4

[4] = system: Erysiphe graminis f. sp. hordei; test: Erysiphe test (barley)/protective; details: protective per Example 4 (table title prints curative), single active compound, application rate 25 g/ha, 7 days after inoculation
Method: Erysiphe Test (Barley)/Protective
as §5, §6, §10
After the spray coating has dried on, the plants are dusted with spores of Erysiphe graminis f. sp. hordei.
as §11, §8

Venturia inaequalis = test: Venturia test (apple)/protective; details: protective, single active compound, application rate 1 g/ha, evaluation 12 days after inoculation
Method: Venturia Test (Apple)/Protective
as §1, §6
To test for protective activity, young plants are sprayed with the active compound preparation at the stated application rate. After the spray coating has dried on, the plants are inoculated with an aqueous konidia suspension of the causative organism of apple scab Venturia inaequalis and then remain in an incubation cabin at about 20° C. and 100% relative atmospheric humidity for one day.
The plants are then placed in a greenhouse at about 21° C. and a relative atmospheric humidity of about 90%.
Evaluation is carried out 12 days after the inoculation. 0% means an efficacy which corresponds to that of the control, whereas an efficacy of 100% means that no infection is observed.

[5] = Podosphaera fuliginea, 240 h, cucumber, protective, single active compound, application rate 12.5 g/ha, evaluation 10 days after inoculation, read-out: Efficacy in %
[6] = Podosphaera fuliginea, 240 h, cucumber, protective, single active compound, application rate 25 g/ha, evaluation 10 days after inoculation, read-out: Efficacy in %
[7] = Podosphaera fuliginea, 240 h, cucumber, protective, single active compound, evaluation 10 days after inoculation, read-out: Efficacy in %
[8] = application rate 75 g/ha as printed

With CN(C)S(=O)(=O)N(SC(F)(Cl)Cl)c1ccccc1 [(IVa)] the pest or weed control at 25 g/ha (Sphaerotheca fuliginea; Podosphaera fuliginea, 240 h, read-out: Efficacy in %) was 0%.
Molecule CCCOC(=O)NC(C(=O)NC(C)c1ccc(C)cc1)C(C)C (centres unmarked) [(IX)] has a pest or weed control at 12.5 g/ha (Sphaerotheca fuliginea; [5]) of 13%.
Molecule N#Cc1c[nH]cc1-c1cccc(Cl)c1Cl [(XXIa), 4-(2,3-dichlorophenyl)-pyrrole-3-carbonitrile] has an Efficacy in % (Fusarium nivale; application rate 25 g/ha) of 0%.
Cc1cc(C2CC2)nc(Nc2ccccc2)n1 [(XVIb)] was tested, and the Efficacy in % ([1]; application rate 12.5 g/ha) was 0% and the pest or weed control at 25 g/ha (Sphaerotheca fuliginea; [6]) was 0%.
With CO/N=C(\C1=NOCCO1)c1ccccc1Oc1ncnc(Oc2ccccc2Cl)c1F [(XIV)] the Efficacy in % ([1]; application rate 12.5 g/ha) was 0%, the Efficacy in % (Puccinia recondita) was 94% and the Efficacy in % (Leptosphaeria nodorum) was 87%. For the same molecule, the pest or weed control at 2.5 g/ha (Sphaerotheca fuliginea; [7]) was 22%, the Efficacy in % [2] was 75% and the Efficacy in % (Fusarium nivale; [8]) was 94%.
In the case of CC(C)(C)C(O)C(Oc1ccc(Cl)cc1)n1cncn1 (centres unmarked) [(IIb), 1-(4-chloro-phenoxy)-3,3-dimethyl-1-(1,2,4-triazol-1-yl)-butan-2-ol], the Efficacy in % ([1]; application rate 25 g/ha) is reported as 81% and the pest or weed control at 2.5 g/ha (Sphaerotheca fuliginea; [7]) is reported as 80%.
Molecule CSC(=O)c1cccc2nnsc12 [(X)] has a pest or weed control at 2.5 g/ha (Sphaerotheca fuliginea; [7]) of 0%.
CCCN(CC)CC1COC2(CCC(C(C)(C)C)CC2)O1 (centres unmarked) [(XI), 8-t-butyl-2-(N-ethyl-N-n-propyl-amino)-methyl-1,4-dioxaspiro-[5,4]-decane] gave an Efficacy in % ([1]; application rate 12.5 g/ha) of 0% and an Efficacy in % (Sphaerotheca fuliginea; cucumber, protective, single active compound, application rate 12.5 g/ha, evaluation 10 days after inoculation) of 0%.
In the case of CC(C)(C)C(O)(CCc1ccc(Cl)cc1)Cn1cncn1 (centres unmarked) [(III)], the Efficacy in % ([1]; application rate 25 g/ha) is reported as 88%, the Efficacy in % [3] is reported as 57% and the pest or weed control at 2.5 g/ha (Sphaerotheca fuliginea; [7]) is reported as 50%. The Efficacy in % (Rhizoctonia solani) was 27%.
COc1ccc(C(=CC(=O)N2CCOCC2)c2ccc(Cl)cc2)cc1OC [(XVIII)] gave a pest or weed control at 12.5 g/ha (Sphaerotheca fuliginea; [5]) of 0%.
CC(C)(C)C(=O)C(Oc1ccc(Cl)cc1)n1cncn1 (centres unmarked) [(IIa), 1-(4-chloro-phenoxy)-3,3-dimethyl-1-(1,2,4-triazol-1-yl)-butane-2-one] was tested, and the pest or weed control at 2.5 g/ha (Sphaerotheca fuliginea; [7]) was 37%.
“zinc propylene-1,2-bis-(dithiocarbamate) [(VI)]” was tested, and the Efficacy in % (Sphaerotheca fuliginea; cucumber, protective, single active compound, application rate 25 g/ha, evaluation 10 days after inoculation) was 0%.
N#Cc1c[nH]cc1-c1cccc2c1OC(F)(F)O2 [(XXIb), 4-(2,2-difluoro-1,3-benzodioxol-7-yl)-1H-pyrrole-3-carbonitrile] was tested, and the Efficacy in % ([1]; application rate 6.25 g/ha) was 38%.
OC(Cc1ccccc1Cl)(Cn1nc[nH]c1=S)C1(Cl)CC1 (centres unmarked) [(I), 2-[2-(1-chlorocyclopropyl)-3-(2-chlorophenyl)-2-hydroxypropyl]-2,4-dihydro-[1,2,4]-triazole-3-thione] gave an Efficacy in % ([1]; application rate 6.25 g/ha) of 25%, an Efficacy in % ([1]; application rate 12.5 g/ha) of 50% and an Efficacy in % ([1]; application rate 25 g/ha) of 75%. For the same molecule, the Efficacy in % [3] was 57%, the Efficacy in % (Puccinia recondita) was 38% and the Efficacy in % (Leptosphaeria nodorum) was 62%. It also gave a pest or weed control at 0.5 g/ha (Sphaerotheca fuliginea; Podosphaera fuliginea, 240 h, cucumber, protective, single active compound, application rate 0.5 g/ha, evaluation 10 days after inoculation, read-out: Efficacy in %) of 0%, a pest or weed control at 2.5 g/ha (Sphaerotheca fuliginea; [7]) of 21% and an Efficacy in % (Fusarium culmorum) of 32%. The Efficacy in % (Rhizoctonia solani) was 19%, the Efficacy in % [4] was 83% and the Efficacy in % [2] was 81%. The Efficacy in % (Venturia inaequalis) was 1%, the Efficacy in % (Fusarium nivale; application rate 25 g/ha) was 0% and the Efficacy in % (Fusarium nivale; [8]) was 14%.
In the case of Cc1ccc(N(SC(F)(Cl)Cl)S(=O)(=O)N(C)C)cc1 [(IVb)], the pest or weed control at 25 g/ha (Sphaerotheca fuliginea; [6]) is reported as 0%.
Work on O=C1c2ccccc2C(=O)N1SC(Cl)(Cl)Cl [(XIX)] yielded a pest or weed control at 25 g/ha (Sphaerotheca fuliginea; [6]) of 0%.
CC12CC1(C)C(=O)N(c1cc(Cl)cc(Cl)c1)C2=O (centres unmarked) [(XV)] showed a pest or weed control at 12.5 g/ha (Sphaerotheca fuliginea; [5]) of 0%.
Work on CC1(C(=O)Nc2ccc(O)c(Cl)c2Cl)CCCCC1 [(VIII)] yielded a pest or weed control at 12.5 g/ha (Sphaerotheca fuliginea; [5]) of 0%.
In the case of N#Cc1c(Cl)c(Cl)c(Cl)c(C#N)c1Cl [(XVII)], the pest or weed control at 25 g/ha (Sphaerotheca fuliginea; [6]) is reported as 0%.
Work on CC(C)(C)C(O)C(Oc1ccc(-c2ccccc2)cc1)n1cncn1 (centres unmarked) [(IIc), 1-(4-phenyl-phenoxy)-3,3-dimethyl-1-(1,2,4-triazol-1-yl)-butan-2-ol] yielded a pest or weed control at 2.5 g/ha (Sphaerotheca fuliginea; [7]) of 0%, an Efficacy in % (Fusarium culmorum) of 27% and an Efficacy in % (Rhizoctonia solani) of 0%.
Molecule CCC(C)(NC(=O)c1cc(Cl)c(C)c(Cl)c1)C(=O)CCl (centres unmarked) [(XXIV)] has a pest or weed control at 12.5 g/ha (Sphaerotheca fuliginea; [5]) of 0%.
In the case of Cc1cc(C)nc(Nc2ccccc2)n1 [(XVIa), pyrimethanil], the pest or weed control at 25 g/ha (Sphaerotheca fuliginea; [6]) is reported as 0%.
Work on CO/C=C(/C(=O)OC)c1ccccc1Oc1cc(Oc2ccccc2C#N)ncn1 [(XII)] yielded a pest or weed control at 2.5 g/ha (Sphaerotheca fuliginea; [7]) of 59% and an Efficacy in % [4] of 92%.
For CO/N=C(/C(=O)OC)c1ccccc1COc1ccccc1C [(XIII)], the Efficacy in % ([1]; application rate 6.25 g/ha) was 94% and the pest or weed control at 2.5 g/ha (Sphaerotheca fuliginea; [7]) was 57%.
